According to patent US11440887B2, “Substituted 1,2,3,4-tetrahydroquinolines as inhibitors of repair enzyme 8-oxoguanine deoxyribonucleic acid glycosylase activity” (The Board of Trustees of the Leland Stanford Junior …, priority 2017, dated 2022):

Target: OGG1 (Homo sapiens (Human), UniProt O15527)
Test: OGG1 inhibitor assay with fluorogenic OGR1 probe (base excision, initial rates)
Assay type: biochemical
Conditions: for Enzyme activity, % of control at 2 μM: 2 μM compound; for Enzyme activity, % of control at 2 μM / Enzyme activity, % of control at 20 μM / Enzyme activity, % of control at 200 nM: ratio of initial rate slope (first 12 min) to no-compound control; for Enzyme activity, % of control at 20 μM: 20 μM compound; for IC50: initial rates method
Experimental: Methods: Synthesized compounds and hOGG1 (100 nM) were incubated in NEBuffer 4 (1×) with BSA (1×) at 37° C. (15 min) in 100 μL reaction volumes in a black 96-well plate. (See, e.g., Edwards, S. K., et al., ChemBioChem 2015, 16, 1637-1646, the disclosure of which is incorporated herein by reference.) After that, OGR1 (1.2 μM) was added to the reaction mixture. Fluorescence at 460 nm was measured on a Thermo Fluoroskan Ascent FL fluorescence plate reader (λex=355 nm). The slope of initial rate (12 min) was calculated, and % of control was used for inhibition activity. BSA, hOGG1 and NEBuffer 4 were purchased from New England Biolabs and used. UltraPure Distilled Water (Invitrogen) was purchased and used for the assay.

Chain of OGG1 (O15527 whole entry): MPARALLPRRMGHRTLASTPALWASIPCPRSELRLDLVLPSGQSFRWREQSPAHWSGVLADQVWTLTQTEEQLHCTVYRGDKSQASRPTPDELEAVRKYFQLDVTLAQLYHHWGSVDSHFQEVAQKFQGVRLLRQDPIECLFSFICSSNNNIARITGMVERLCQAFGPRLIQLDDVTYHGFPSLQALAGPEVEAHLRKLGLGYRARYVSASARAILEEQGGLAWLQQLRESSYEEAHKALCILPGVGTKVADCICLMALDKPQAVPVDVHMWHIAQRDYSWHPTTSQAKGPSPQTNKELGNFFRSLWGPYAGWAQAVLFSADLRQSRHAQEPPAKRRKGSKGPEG

NNC(=O)c1sc2cccc(Cl)c2c1Cl [Compound O8, reference compound]
Enzyme activity, % of control at 2 μM: 69 % of control | Enzyme activity, % of control at 20 μM: 45 % of control

O=C(C1CC1)N1CCCc2ccc(NS(=O)(=O)c3ccc(N4CCOCC4)cc3)cc21 [Compound 32]
Enzyme activity, % of control at 200 nM (200 nM compound): 84 % of control | Enzyme activity, % of control at 2 μM: 76 % of control

CCOc1ccc(S(=O)(=O)Nc2ccc3c(c2)N(C(=O)CCOC)CCC3)cc1 [Compound 4]
Enzyme activity, % of control at 2 μM: 93 % of control | Enzyme activity, % of control at 20 μM: 51 % of control

CCCc1ccc(S(=O)(=O)Nc2ccc3c(c2)N(C(=O)C2CC2)CCC3)cc1 [Compound 23]
Enzyme activity, % of control at 200 nM (200 nM compound): 74 % of control | Enzyme activity, % of control at 2 μM: 35 % of control | Enzyme activity, % of control at 20 μM: 14 % of control

O=C(C1CC1)N1CCCc2ccc(NS(=O)(=O)c3ccc(-c4ccccc4)cc3)cc21 [Compound 30]
Enzyme activity, % of control at 200 nM (200 nM compound): 90 ± 6.2 % of control | Enzyme activity, % of control at 2 μM: 29 ± 7.0 % of control

CCOc1ccc(S(=O)(=O)Nc2ccc3c(c2)N(C(=O)CC)CC3)cc1 [Compound 13]
Enzyme activity, % of control at 2 μM: 95 % of control | Enzyme activity, % of control at 20 μM: ≥100 % of control

CCOc1ccc(S(=O)(=O)Nc2ccc3c(c2)N(C(=O)C(C)(C)C)CCC3)cc1 [Compound 6]
Enzyme activity, % of control at 20 μM: ≥100 % of control

CCCOc1ccc(S(=O)(=O)Nc2ccc3c(c2)N(C(=O)C2CC2)CCC3)cc1 [Compound 24]
Enzyme activity, % of control at 200 nM (200 nM compound): 95 % of control | Enzyme activity, % of control at 2 μM: 19 % of control

CCOc1ccc(S(=O)(=O)Nc2cccc(NC(C)=O)c2)cc1 [Compound 12]
Enzyme activity, % of control at 2 μM: 96 % of control | Enzyme activity, % of control at 20 μM: 70 % of control

CCOc1ccc(S(=O)(=O)N(O)c2ccc3c(c2)N(C(=O)C2CC2)CCC3)cc1 [Compound 18]
Enzyme activity, % of control at 200 nM (200 nM compound): ≥100 % of control | Enzyme activity, % of control at 2 μM: 79 % of control | Enzyme activity, % of control at 20 μM: 21 % of control

CCOc1ccc(S(=O)(=O)Nc2ccc3c(c2)N(C(=O)C2CC2)CCCC3)cc1 [Compound 14]
Enzyme activity, % of control at 2 μM: 76 % of control | Enzyme activity, % of control at 20 μM: 35 % of control

CCNc1ccc(S(=O)(=O)Nc2ccc3c(c2)N(C(=O)C2CC2)CCC3)cc1 [Compound 25]
Enzyme activity, % of control at 200 nM (200 nM compound): ≥100 % of control | Enzyme activity, % of control at 2 μM: 58 % of control | Enzyme activity, % of control at 20 μM: 10 % of control

CCC(=O)N1CCCc2ccc(NS(=O)(=O)CC)cc21 [Compound 22]
Enzyme activity, % of control at 2 μM: 94 % of control | Enzyme activity, % of control at 20 μM: 74 % of control

O=C(C1CC1)N1CCCc2ccc(NS(=O)(=O)c3ccc(-n4cccn4)cc3)cc21 [Compound 33]
Enzyme activity, % of control at 200 nM (200 nM compound): 81 % of control | Enzyme activity, % of control at 2 μM: 45 ± 1.3 % of control | Enzyme activity, % of control at 20 μM: 14 ± 3.2 % of control

CCOc1ccc(S(=O)(=O)Nc2ccc3c(c2)N(C(=O)NC2CC2)CCC3)cc1 [Compound 10]
Enzyme activity, % of control at 2 μM: 87 % of control | Enzyme activity, % of control at 20 μM: 77 % of control

CCOc1ccc(S(=O)(=O)Nc2ccc3c(c2)CN(C(=O)C2CC2)CC3)cc1 [Compound 17]
Enzyme activity, % of control at 2 μM: 94 % of control | Enzyme activity, % of control at 20 μM: 88 % of control

CCOc1ccc(S(=O)(=O)Nc2ccc3c(c2)N(C(=O)C2CC2)CCC3)cc1C [Compound 27]
Enzyme activity, % of control at 2 μM: 71 % of control | Enzyme activity, % of control at 20 μM: 22 % of control

CCOc1ccc(S(=O)(=O)N(C)c2ccc3c(c2)N(C(=O)C2CC2)CCC3)cc1 [Compound 19]
Enzyme activity, % of control at 2 μM: 84 % of control | Enzyme activity, % of control at 20 μM: 79 % of control

COc1ccc(-c2ccc(S(=O)(=O)Nc3ccc4c(c3)N(C(=O)C3CC3)CCC4)cc2)cc1 [Compound 36]
Enzyme activity, % of control at 200 nM (200 nM compound): 79 % of control | Enzyme activity, % of control at 2 μM: 31 % of control

CCOc1ccc(S(=O)(=O)Nc2ccc3c(c2)N(C(=O)C2CCC2)CCC3)cc1 [Compound 8]
Enzyme activity, % of control at 2 μM: 69 % of control | Enzyme activity, % of control at 20 μM: 33 % of control

O=C(C1CC1)N1CCCc2ccc(NS(=O)(=O)c3ccc4oc5ccccc5c4c3)cc21 [Compound 29]
Enzyme activity, % of control at 2 μM: 82 % of control | Enzyme activity, % of control at 20 μM: 71 % of control

O=C(C1CC1)N1CCCc2ccc(NS(=O)(=O)c3ccc(-c4cccnc4)cc3)cc21 [Compound 34]
inhibition of activity at 200 nM (200 nM compound): ca. 40% | Enzyme activity, % of control at 200 nM (200 nM compound): 61 ± 1.3 % of control | Enzyme activity, % of control at 2 μM: 23 ± 1.5 % of control | Enzyme activity, % of control at 20 μM: 2.0 % of control | IC50: 0.27 µM

CCOc1ccc(S(=O)(=O)Nc2ccc3c(c2)N(C(=O)C2CC2)CCC3)cc1 [Compound 7]
Enzyme activity, % of control at 200 nM (200 nM compound): 82 ± 12 % of control | Enzyme activity, % of control at 2 μM: 41 ± 1.7 % of control | Enzyme activity, % of control at 20 μM: 5.8 ± 1.9 % of control | IC50: 1.1 µM

CCOc1ccc(S(=O)(=O)Nc2ccc3c(c2)N(C(=O)C(C)C)CCC3)cc1 [Compound 5]
Enzyme activity, % of control at 2 μM: 96 % of control | Enzyme activity, % of control at 20 μM: 52 % of control

CCOc1ccc(S(=O)(=O)Nc2ccc3c(c2)N(CC2CC2)CCC3)cc1 [Compound 11]
Enzyme activity, % of control at 2 μM: ≥100 % of control | Enzyme activity, % of control at 20 μM: 83 % of control

CCOc1ccc(S(=O)(=O)Nc2cc3c(cc2OC)CCCN3C(=O)C2CC2)cc1 [Compound 16]
Enzyme activity, % of control at 2 μM: ≥100 % of control | Enzyme activity, % of control at 20 μM: 93 % of control

COc1cccc(-c2ccc(S(=O)(=O)Nc3ccc4c(c3)N(C(=O)C3CC3)CCC4)cc2)c1 [Compound 37]
Enzyme activity, % of control at 200 nM (200 nM compound): 67 % of control | Enzyme activity, % of control at 2 μM: 13 % of control

CCOc1ccc(S(=O)(=O)Nc2ccc3c(c2)N(C(=O)Cc2ccccc2)CCC3)cc1 [Compound 3]
Enzyme activity, % of control at 2 μM: ≥100 % of control | Enzyme activity, % of control at 20 μM: 79 % of control

CSc1ccc(S(=O)(=O)Nc2ccc3c(c2)N(C(=O)C2CC2)CCC3)cc1 [Compound 26]
Enzyme activity, % of control at 200 nM (200 nM compound): 75 % of control | Enzyme activity, % of control at 2 μM: 53 % of control | Enzyme activity, % of control at 20 μM: 3.6 % of control

CCOc1ccc(C(=O)Nc2ccc3c(c2)N(C(=O)C2CC2)CCC3)cc1 [Compound 20]
Enzyme activity, % of control at 2 μM: ≥100 % of control | Enzyme activity, % of control at 20 μM: ≥100 % of control

CCOc1ccc(NC(=O)Nc2ccc3c(c2)N(C(=O)C2CC2)CCC3)cc1 [Compound 21]
Enzyme activity, % of control at 2 μM: ≥100 % of control | Enzyme activity, % of control at 20 μM: ≥100 % of control

CCOc1ccc(S(=O)(=O)Nc2ccc3c(c2)N(S(=O)(=O)CC)CCC3)cc1 [Compound 9]
Enzyme activity, % of control at 2 μM: 96 % of control | Enzyme activity, % of control at 20 μM: 92 % of control

CCOc1ccc(S(=O)(=O)Nc2ccc3c(c2)N(C(=O)C2CC2)CCO3)cc1 [Compound 15]
Enzyme activity, % of control at 2 μM: 90 % of control | Enzyme activity, % of control at 20 μM: 41 % of control

O=C(C1CC1)N1CCCc2ccc(NS(=O)(=O)c3ccc(-c4ccc(C(F)(F)F)cc4)cc3)cc21 [Compound 35]
Enzyme activity, % of control at 200 nM (200 nM compound): 97 % of control | Enzyme activity, % of control at 2 μM: 72 % of control

CNC(=O)c1cccc(-c2ccc(S(=O)(=O)Nc3ccc4c(c3)N(C(=O)C3CC3)CCC4)cc2)c1 [Compound 40]
Enzyme activity, % of control at 200 nM (200 nM compound): 48 % of control

O=C(C1CC1)N1CCCc2ccc(NS(=O)(=O)c3ccc(C4CCCCC4)cc3)cc21 [Compound 31]
Enzyme activity, % of control at 200 nM (200 nM compound): 87 % of control | Enzyme activity, % of control at 2 μM: 25 % of control

CCOc1ccc(S(=O)(=O)Nc2ccc3c(c2)N(C(=O)CC)CCC3)cc1 [Compound 2]
Enzyme activity, % of control at 2 μM: 51 ± 1.4 % of control | Enzyme activity, % of control at 20 μM: 3.7 ± 0.83 % of control

O=C(C1CC1)N1CCCc2ccc(NS(=O)(=O)c3ccc(Oc4ccccc4)cc3)cc21 [Compound 28]
Enzyme activity, % of control at 200 nM (200 nM compound): ≥100 % of control | Enzyme activity, % of control at 2 μM: 41 ± 2.0 % of control | Enzyme activity, % of control at 20 μM: 8.3 % of control | IC50: 1.5 µM

CN(C)c1cccc(-c2ccc(S(=O)(=O)Nc3ccc4c(c3)N(C(=O)C3CC3)CCC4)cc2)c1 [Compound 38]
Enzyme activity, % of control at 200 nM (200 nM compound): 70 % of control
